Reference: patent publication US20030100034A1, “9136, a human aldehyde dehydrogenase family member and uses therefor” (Millennium Pharmaceuticals, Inc., priority 2001, published 2003)

Test system: 9136 in NCI-H125 cells
Experiment: 9136 expression after 4HT induction of p53ER in NCI-H125 cells
Assay type: cell-based, human
Method: Total RNA was prepared from various human tissues by a single step extraction method using RNA STAT-60 according to the manufacturer's instructions (TelTest, Inc). Each RNA preparation was treated with DNase I (Ambion) at 37° C. for 1 hour. DNAse I treatment was determined to be complete if the sample required at least 38 PCR amplification cycles to reach a threshold level of fluorescence using β-2 microglobulin as an internal amplicon reference. The integrity of the RNA samples following DNase I treatment was confirmed by agarose gel electrophoresis and ethidium bromide staining. After phenol extraction cDNA was prepared from the sample using the SUPERSCRIPT™ Choice System following the manufacturer's instructions (GibcoBRL). A negative control of RNA without reverse transcriptase was mock reverse transcribed for each RNA sample. Human 9136 expression was measured by TaqMan® & quantitative PCR (Perkin Elmer Applied Biosystems) in cDNA prepared from a variety of normal and diseased (e.g., cancerous) human tissues or cell lines. Probes were designed by PrimerExpress software (PE Biosystems) based on the sequence of the human 9136 gene. Each human 9136 gene probe was labeled using FAM (6-carboxyfluorescein), and the β2-microglobulin reference probe was labeled with a different fluorescent dye, VIC. The differential labeling of the target gene and internal reference gene thus enabled measurement in same well. Forward and reverse primers and the probes for both β2-microglobulin and target gene were added to the TaqMan® Universal PCR Master Mix (PE Applied Biosystems). Although the final concentration of primer and probe could vary, each was internally consistent within a given experiment. A typical experiment contained 200 nM of forward and reverse primers plus 100 nM probe for β-2 microglobulin and 600 nM forward and reverse primers plus 200 nM probe for the target gene. TaqMan matrix experiments were carried out on an ABI PRISM 7700 Sequence Detection System (PE Applied Biosystems). The thermal cycler conditions were as follows: hold for 2 min at 50° C. and 10 min at 95° C., followed by two-step PCR for 40 cycles of 95° C. for 15 sec followed by 60° C. for 1 min.
The following method was used to quantitatively calculate human 9136 gene expression in the various tissues relative to β-2 microglobulin expression in the same tissue. The threshold cycle (Ct) value is defined as the cycle at which a statistically significant increase in fluorescence is detected. A lower Ct value is indicative of a higher mRNA concentration. The Ct value of the human 9136 gene is normalized by subtracting the Ct value of the β-2 microglobulin gene to obtain a ΔCt value using the following formula: ΔCt=[…]−Ctβ-2 microglobulin. Expression is then calibrated against a cDNA sample showing a comparatively low level of expression of the human 9136 gene. The ΔCt value for the calibrator sample is then subtracted from ΔCt for each tissue sample according to the following formula: ΔΔCt=ΔCt-sample−ΔCt-calibrator. Relative expression is then calculated using the arithmetic formula given by 2^−ΔΔCt. Relative expression levels of the target human 9136 gene in each of the tissues tested is then graphically represented as discussed in more detail below.
In addition, a study of the 9136 gene expression levels, with or without introduction of p53 expression, was carried out in several carcinoma cell lines. The p53 tumor suppressor gene has been the subject of intense study for a number of years. […] One of those identified genes is 9136, which, as mentioned earlier, is the human ALDH6 gene.

For `CC/C(=C(\c1ccc(O)cc1)c1ccc(OCCN(C)C)cc1)c1ccccc1` [4HT], the “9136 Expression” value (0 hr post-4HT induction) was 5.82, the “9136 Expression” value (5 min post-4HT induction) was 6.29 and the “9136 Expression” value (20 min post-4HT induction) was 5.64. The “9136 Expression” value (1 hr post-4HT induction) was 5.60, the “9136 Expression” value (3 hr post-4HT induction) was 5.83 and the “9136 Expression” value (9 hr post-4HT induction) was 5.10. For the same compound, the “9136 Expression” value (24 hr post-4HT induction) was 3.1 and the “9136 Expression” value (48 hr post-4HT induction) was 3.03.
